# Data as given in patent publication US20110172230A1, “UREA COMPOUND OR SALT THEREOF” (priority 2006, published 2011).
# Where a name gives a salt, the structure may show the parent alone.
# Target: T1, FAAH (Homo sapiens, UniProt O00519)
# T1 construct: host or cells: 5637 human bladder epithelial cancer-derived cells, not transfected
# T1 sequence (O00519 1-579): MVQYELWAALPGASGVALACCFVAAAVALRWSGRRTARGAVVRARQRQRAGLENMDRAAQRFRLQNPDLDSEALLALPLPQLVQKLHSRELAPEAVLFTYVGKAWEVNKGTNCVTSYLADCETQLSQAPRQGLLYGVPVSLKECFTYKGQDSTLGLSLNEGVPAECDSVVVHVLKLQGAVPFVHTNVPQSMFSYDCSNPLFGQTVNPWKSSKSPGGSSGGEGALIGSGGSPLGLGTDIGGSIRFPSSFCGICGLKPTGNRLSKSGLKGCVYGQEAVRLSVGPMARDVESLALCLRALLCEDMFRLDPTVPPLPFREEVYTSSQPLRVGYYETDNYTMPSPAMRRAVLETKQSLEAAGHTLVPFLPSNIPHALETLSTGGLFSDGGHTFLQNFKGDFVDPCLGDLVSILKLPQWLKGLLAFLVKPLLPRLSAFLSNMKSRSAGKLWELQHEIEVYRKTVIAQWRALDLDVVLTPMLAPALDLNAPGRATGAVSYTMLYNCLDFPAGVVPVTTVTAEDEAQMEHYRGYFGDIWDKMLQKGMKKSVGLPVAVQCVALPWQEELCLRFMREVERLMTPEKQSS
# Experiment: Screening for an FAAH activity-inhibiting substance with human bladder epithelial cancer-derived cell line 5637 cells (IC50)
# Type: cell-based
# Settings: FAAH activity in human bladder epithelial cancer-derived 5637 cells, 37° C., 30 minutes
# Experimental: Screening for an FAAH Activity-Inhibiting Substance with a Human Bladder Epithelial Cancer-Derived Cell
# (1) Screening for an FAAH Activity Inhibiting Substance
# Human bladder epithelial cancer-derived cell line 5637 cells (HTB-9; ATCC) were seeded on a 48-well cell culture plate in an amount of 1×10^5 cell/well, using 10% fetal bovine serum (HyClone)-containing RPMI1640 medium (Invitrogen Corporation). After incubated at 37° C. for 12 hours or longer, the cells were washed with 400 μl/well of a buffer (Hank's Balanced Salt Solution, 20 mM Hepes-NaOH (pH 7.4)). A test substance dissolved in DMSO was added to a substrate solution (the above buffer containing 3 μCi/ml radiolabeled anandamide (Anandamide [ethanolamine 1-^3H]) and 10 μM anandamide) so as to have a concentration from 0.003 nM to 30 nM. As a control, DMSO alone was added. 100 μl/well of the substrate solution was added to the above cells, and incubated in a CO2 incubator at 37° C. for 30 minutes. Next, the cell culture plate was transferred onto ice, and the substrate solution was removed by suction; and 75 μl/well of a cytolytic solution (the above buffer containing 0.5% Triton X-100, and 10 μM of FAAH-inhibitory activity-having compound, 3′-carbamoylbiphenyl-3-yl ester (URB597; Cayman chemical; Kathuria et al., Nature Med., Vol. 9, pp. 76-81, 2003)) was added thereto, followed by stirring. The resulting cell lysate in every well was individually transferred into a 1.5 ml sample tube, to which was added 150 μl of 1:1 (ratio by volume) chloroform/methanol solution, followed by vortexing. This was centrifuged (15000 rpm, 2 minutes), whereby the decomposed product, ethanolamine (ethanolamine 1-^3H) was separated in the upper layer (water/methanol layer) and the unreacted radiolabeled anandamide was in the lower layer (chloroform layer). 25 μl of the upper layer was transferred into a 96-well organic solvent-resistant white microplate (PicoPlate-96; Perkin Elmer, Inc.), 150 μl of Microscint-20 (Perkin Elmer, Inc.) was added thereto, and this was measured with a microplate scintillation counter (TopCount™; Beckman Coulter, Inc.). As compared with the control, the substance that gave a decreased value was selected as an FAAH activity-inhibiting substance.
# (2) Measurement of the IC50 Value of the FAAH Activity Inhibiting Substance
# The compound dissolved in DMSO to have a concentration of 10 mM was dissolved in the substrate solution so as to have a varying concentration from 0.003 nM to 30 nM. According to the method mentioned above, the compound was analyzed for its influence on FAAH activity. As a negative control, DMSO was used. As a positive control, URB597 was added to the substrate solution to have a concentration of 10 μM. Based on the measured value of the positive control, 0%, and on the measured value of the negative control, 100%, the IC50 value of the test substance was obtained. Furthermore, Ex represents Example No. as denoted below.
row,Structure (SMILES),IC50 [nM]
1,"O=C(Nc1cccnc1)N1CCN(Cc2ccnc(OCCC3CCCCC3)c2)CC1 [Example 30, 4-{[2-(2-cyclohexylethoxy)pyridin-4-yl]methyl}-N-pyridin-3-ylpiperazine-1-carboxamide trihydrochloride]",0.28
2,"O=C(Nc1cnccn1)N1CCN(C(=O)c2ccnc(OCCC3CCCCC3)c2)CC1 [Example 38, 4-[2-(2-cyclohexylethoxy)isonicotinoyl]-N-pyrazin-2-ylpiperazine-1-carboxamide]",0.7
3,O=C(Nc1ncccn1)N1CCN(C(=O)c2cccc(OCCC3CCCCC3)c2)CC1 [Example 155],0.54
4,O=C(Nc1cnccn1)N1CCN(C(=O)c2cccc(OCCC3CCCCC3)c2)CC1 [Example 210],0.16
5,CN(CCC1CCCCC1)c1ccc(C(=O)N2CCN(C(=O)Nc3cccnc3)CC2)cc1 [Example 334],0.18
6,COCC(=O)NC(=O)N1CCN(Cc2cccc(OCCC3CCCCC3)c2)CC1 [Example 439],0.43
